Assay results published in PubChem BioAssay AID248 (DTP/NCI, 2004).
Toxic doses and inconclusive results are not listed. Rule as the data show it: active = T/C of 150% or more; inactive = T/C below 125%.

System: L1210 leukemia ip in BDF1 mice, survival T/C
Assay: NCI In Vivo Anticancer Drug Screen. Data for tumor model L1210 Leukemia (intraperitoneal) in B6D2F1 (BDF1) mice
Conditions: endpoint: mean survival time, higher = longer survival
Summary of the method: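 Read-out is survival time, reported as the treated-group measurement over the vehicle-control measurement.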

[1] = dose: 100.0 mg/kg/injection, schedule: Q01DX001 (ip), vehicle: saline
[2] = dose: 200.0 mg/kg/injection, schedule: Q01DX001 (ip), vehicle: saline
[3] = dose: 400.0 mg/kg/injection, schedule: Q01DX001 (ip), vehicle: saline
[4] = dose: 100.0 mg/kg/injection, schedule: Q04DX003 (ip), vehicle: saline with Tween-80
[5] = dose: 200.0 mg/kg/injection, schedule: Q04DX003 (ip), vehicle: saline with Tween-80
[6] = dose: 400.0 mg/kg/injection, schedule: Q04DX003 (ip), vehicle: saline with Tween-80
[7] = dose: 50.0 mg/kg/injection, schedule: Q01DX001 (ip), vehicle: saline
[8] = dose: 50.0 mg/kg/injection, schedule: Q01DX009 (ip), vehicle: saline
[9] = dose: 100.0 mg/kg/injection, schedule: Q01DX009 (ip), vehicle: saline
[10] = dose: 200.0 mg/kg/injection, schedule: Q01DX009 (ip), vehicle: saline
[11] = dose: 100.0 mg/kg/injection, schedule: Q01DX001 (ip), vehicle: Klucel (hydroxypropylcellulose) (HPC)
[12] = dose: 100.0 mg/kg/injection, schedule: Q01DX009 (ip), vehicle: Klucel (hydroxypropylcellulose) (HPC)
[13] = dose: 200.0 mg/kg/injection, schedule: Q01DX001 (ip), vehicle: Klucel (hydroxypropylcellulose) (HPC)
[14] = dose: 400.0 mg/kg/injection, schedule: Q01DX001 (ip), vehicle: Klucel (hydroxypropylcellulose) (HPC)
[15] = dose: 100.0 mg/kg/injection, schedule: Q01DX009 (ip), vehicle: saline with Tween-80
[16] = dose: 200.0 mg/kg/injection, schedule: Q01DX009 (ip), vehicle: saline with Tween-80
[17] = dose: 400.0 mg/kg/injection, schedule: Q01DX009 (ip), vehicle: saline with Tween-80
[18] = dose: 100.0 mg/kg/injection, schedule: Q04DX003 (ip), vehicle: saline
[19] = dose: 200.0 mg/kg/injection, schedule: Q04DX003 (ip), vehicle: saline
[20] = dose: 400.0 mg/kg/injection, schedule: Q04DX003 (ip), vehicle: saline
[21] = dose: 200.0 mg/kg/injection, schedule: Q04DX002 (ip), vehicle: Klucel (hydroxypropylcellulose) (HPC)
[22] = dose: 400.0 mg/kg/injection, schedule: Q04DX002 (ip), vehicle: Klucel (hydroxypropylcellulose) (HPC)
[23] = dose: 100.0 mg/kg/injection, schedule: Q04DX002 (ip), vehicle: Klucel (hydroxypropylcellulose) (HPC)
[24] = dose: 100.0 mg/kg/injection, schedule: Q01DX001 (ip), vehicle: carboxymethylcellulose (CMC)
[25] = dose: 200.0 mg/kg/injection, schedule: Q01DX001 (ip), vehicle: carboxymethylcellulose (CMC)
[26] = dose: 400.0 mg/kg/injection, schedule: Q01DX001 (ip), vehicle: carboxymethylcellulose (CMC)
[27] = dose: 100.0 mg/kg/injection, schedule: Q04DX003 (ip), vehicle: Klucel (hydroxypropylcellulose) (HPC)
[28] = dose: 200.0 mg/kg/injection, schedule: Q04DX003 (ip), vehicle: Klucel (hydroxypropylcellulose) (HPC)
[29] = dose: 400.0 mg/kg/injection, schedule: Q04DX003 (ip), vehicle: Klucel (hydroxypropylcellulose) (HPC)

Measured: T/C

CCCCNC(=O)n1ncc2cc([N+](=O)[O-])c([N+](=O)[O-])cc21
inactive: [1] 103 % of control | [2] 97 % of control | [3] 101 % of control

CS/C(N)=N\C(=S)Nc1ccccc1
inactive: [4] 95 % of control | [5] 97 % of control | [6] 101 % of control

COc1ccc(OC)c2c(C)c(C)[nH]c12
inactive: [7] 98 % of control | [1] 93 % of control | [2] 109 % of control | [3] 106 % of control

CCCCCCCC#N
inactive: dose: 100.0 mg/kg/injection, schedule: Q01DX001 (ip), vehicle: saline with Tween-80 92 % of control | dose: 200.0 mg/kg/injection, schedule: Q01DX001 (ip), vehicle: saline with Tween-80 97 % of control | dose: 400.0 mg/kg/injection, schedule: Q01DX001 (ip), vehicle: saline with Tween-80 105 % of control

O=C(NCCc1cnc[nH]1)C(F)(F)F
inactive: [8] 96 % of control | [9] 96 % of control | [10] 100 % of control

CCOC(=O)CC(=O)c1ccccc1SC
inactive: [4] 102 % of control | [5] 100 % of control | [6] 91 % of control

O=C1CC(N2CCOCC2)c2ccccc21 (stereo not drawn)
inactive: [11] 98 % of control | [12] 102 % of control | [13] 92 % of control | dose: 200.0 mg/kg/injection, schedule: Q01DX009 (ip), vehicle: Klucel (hydroxypropylcellulose) (HPC) 93 % of control | [14] 92 % of control | dose: 400.0 mg/kg/injection, schedule: Q01DX009 (ip), vehicle: Klucel (hydroxypropylcellulose) (HPC) 91 % of control

Cc1c(C#N)c2n(c1C)CCCC(=O)N2
inactive: dose: 50.0 mg/kg/injection, schedule: Q01DX009 (ip), vehicle: saline with Tween-80 91 % of control | dose: 50.0 mg/kg/injection, schedule: Q04DX003 (ip), vehicle: saline with Tween-80 101 % of control | [15] 90 % of control | [4] 88 % of control | [16] 91 % of control | [5] 97 % of control | [17] 88 % of control | [6] 92 % of control

CNC(=O)N(C)C1C(OC)OC2COC(c3ccccc3)OC2C1O (stereo not drawn)
inactive: dose: 25.0 mg/kg/injection, schedule: Q01DX009 (ip), vehicle: saline 100 % of control | [8] 105 % of control | [9] 100 % of control | [10] 100 % of control

CC(=O)O/N=C(\C)C12CCCCC1C(O)CCC2 (stereo not drawn)
inactive: [1] 91 % of control | [18] 94 % of control | [2] 91 % of control | [19] 101 % of control | [3] 91 % of control | [20] 104 % of control

Cc1c2ccccc2c(C)c2c1cc(C(=O)O)c1ccccc12
inactive: [21] 115 % of control | [22] 101 % of control

C1=NC(c2ccccc2)=CN(C2CCCCC2)C1(c1ccccc1)C1CCCCC1 (stereo not drawn)
inactive: dose: 50.0 mg/kg/injection, schedule: Q04DX002 (ip), vehicle: saline with Tween-80 99 % of control | [23] 92 % of control | dose: 100.0 mg/kg/injection, schedule: Q04DX002 (ip), vehicle: saline with Tween-80 105 % of control | [21] 98 % of control | dose: 200.0 mg/kg/injection, schedule: Q04DX002 (ip), vehicle: saline with Tween-80 96 % of control | [22] 98 % of control

O=S1(=O)CC2(C1)OCCO2
inactive: [23] 94 % of control | [21] 94 % of control

O=C(C[P+](c1ccccc1)(c1ccccc1)c1ccccc1)c1ccc([N+](=O)[O-])cc1
inactive: [1] 105 % of control | [2] 105 % of control | [3] 100 % of control

COc1ccc(Oc2ccccc2)cc1-c1ccccc1
inactive: [24] 93 % of control | [25] 102 % of control | [26] 96 % of control

CC(=O)OC1CCCOC1OC(C)=O (stereo not drawn)
inactive: [1] 99 % of control | [9] 106 % of control | [2] 100 % of control | [10] 100 % of control | [3] 94 % of control | dose: 400.0 mg/kg/injection, schedule: Q01DX009 (ip), vehicle: saline 95 % of control

CC(C)(C)N1C(=O)N(C(C)(C)C)C1=O
inactive: [15] 91 % of control | [27] 113 % of control | [16] 94 % of control | [28] 102 % of control | [17] 93 % of control | [29] 109 % of control

COc1c(O)cc2oc3cc(O)c(CC=C(C)C)c(O)c3c(=O)c2c1CC=C(C)C
inactive: [11] 97 % of control | [12] 96 % of control | [27] 105 % of control | [13] 97 % of control | [28] 105 % of control | [14] 98 % of control | [29] 100 % of control

CCOC(=O)/C(=C/c1ccc(OC)cc1)P(=O)(OCC)OCC
inactive: [7] 91 % of control | [1] 91 % of control | [2] 103 % of control | [3] 95 % of control

COc1ccccc1CNc1ncnc2nc[nH]c12
inactive: dose: 100.0 mg/kg/injection, schedule: Q04DX003 (ip), vehicle: acetone 97 % of control | dose: 200.0 mg/kg/injection, schedule: Q04DX003 (ip), vehicle: acetone 94 % of control | dose: 400.0 mg/kg/injection, schedule: Q04DX003 (ip), vehicle: acetone 107 % of control

CC1=C[S+](c2ccccc2)c2cccc3cc4ccccc4c1c23 (stereo not drawn)
inactive: dose: 2.5 mg/kg/injection, schedule: Q01DX009 (ip), vehicle: saline with Tween-80 119 % of control

CN=[N+]([O-])C1(OC(C)=O)CCCC1
inactive: dose: 6.25 mg/kg/injection, schedule: Q01DX001 (ip), vehicle: saline 117 % of control | dose: 12.5 mg/kg/injection, schedule: Q01DX001 (ip), vehicle: saline 110 % of control | dose: 25.0 mg/kg/injection, schedule: Q01DX001 (ip), vehicle: saline 117 % of control | [7] 113 % of control

NC(=O)C(c1ccccc1)N1CCOCC1 (stereo not drawn)
inactive: dose: 50.0 mg/kg/injection, schedule: Q04DX003 (ip), vehicle: saline 106 % of control | [18] 102 % of control | [19] 104 % of control | [20] 102 % of control

CC1C(=O)CC(=O)C1=O (stereo not drawn)
inactive: dose: 50.0 mg/kg/injection, schedule: Q01DX009 (ip), vehicle: saline sonified 104 % of control | dose: 100.0 mg/kg/injection, schedule: Q01DX009 (ip), vehicle: saline sonified 117 % of control | [18] 100 % of control | dose: 200.0 mg/kg/injection, schedule: Q01DX009 (ip), vehicle: saline sonified 104 % of control | [19] 100 % of control

Cc1cccc(C)c1NC(N)=S
inactive: [27] 98 % of control | [28] 90 % of control

CCCCOC(=S)Nc1ccc(S(=O)(=O)c2ccc(NC(=S)OCCCC)cc2)cc1
inactive: [1] 108 % of control | [2] 102 % of control | [3] 104 % of control

Cc1cc(CSC2=NCCCN2)c(C)cc1CSC1=NCCCN1
inactive: dose: 1.56 mg/kg/injection, schedule: Q01DX009 (ip), vehicle: saline 88 % of control | dose: 3.13 mg/kg/injection, schedule: Q01DX009 (ip), vehicle: saline 103 % of control | dose: 6.25 mg/kg/injection, schedule: Q01DX009 (ip), vehicle: saline 92 % of control

CS(=O)(=O)Oc1ccc2ccccc2c1[N+](=O)[O-]
inactive: [24] 98 % of control | [25] 98 % of control | [26] 98 % of control

CC(=O)N(C)c1ccc(NC(=O)Nc2cc([N+](=O)[O-])ccc2F)cc1
inactive: [27] 91 % of control | [28] 97 % of control | [29] 92 % of control
